Experimental data: the NIST ThermoML archive (doi:10.1016/j.jct.2013.05.029)

Test: refractive index (other wavelength) (dimensionless); xn = mol fraction of the nth substance listed
Details: 101 kPa, Liquid, Wavelength=633 nm, Standard Abbe refractometry

CCCCCCCCCC [decane] + COC(=O)OC
Details	refractive index
280.97 K, x2 = 0.517	1.4023
280.97 K, x2 = 0.915	1.3807
281.95 K, x2 = 0.537	1.4011
281.95 K, x2 = 0.913	1.3805
283 K, x2 = 0.549	1.4002
283 K, x2 = 0.903	1.3808
284.42 K, x2 = 0.581	1.3983
284.42 K, x2 = 0.89	1.3811
285.51 K, x2 = 0.615	1.3964
285.51 K, x2 = 0.876	1.3817
286.06 K, x2 = 0.63	1.3954
286.06 K, x2 = 0.867	1.382
286.31 K, x2 = 0.641	1.3948
286.31 K, x2 = 0.859	1.3825
286.44 K, x2 = 0.65	1.3943
286.44 K, x2 = 0.855	1.3827
286.64 K, x2 = 0.663	1.3936
286.64 K, x2 = 0.849	1.383
286.84 K, x2 = 0.671	1.3932
286.84 K, x2 = 0.842	1.3834
286.94 K, x2 = 0.677	1.3928
286.94 K, x2 = 0.837	1.3837
287.03 K, x2 = 0.689	1.3922
287.03 K, x2 = 0.831	1.3841
287.13 K, x2 = 0.692	1.392
287.13 K, x2 = 0.827	1.3843
287.21 K, x2 = 0.703	1.3914
287.21 K, x2 = 0.708	1.3911
287.21 K, x2 = 0.819	1.3847
287.21 K, x2 = 0.824	1.3844
287.23 K, x2 = 0.705	1.3913
287.23 K, x2 = 0.712	1.3909
287.23 K, x2 = 0.815	1.385
287.23 K, x2 = 0.82	1.3847
287.26 K, x2 = 0.716	1.3907
287.26 K, x2 = 0.817	1.3849
287.27 K, x2 = 0.712	1.3909
287.27 K, x2 = 0.813	1.3851
287.28 K, x2 = 0.716	1.3907
287.28 K, x2 = 0.817	1.3849
287.29 K, x2 = 0.716	1.3907
287.29 K, x2 = 0.809	1.3853
287.31 K, x2 = 0.72	1.3905
287.31 K, x2 = 0.814	1.385
287.32 K, x2 = 0.72	1.3905
287.32 K, x2 = 0.723	1.3903
287.32 K, x2 = 0.729	1.39
287.32 K, x2 = 0.804	1.3857
287.32 K, x2 = 0.806	1.3855
287.32 K, x2 = 0.809	1.3853
287.35 K, x2 = 0.725	1.3902
287.35 K, x2 = 0.731	1.3899
287.35 K, x2 = 0.735	1.3896
287.35 K, x2 = 0.741	1.3893
287.35 K, x2 = 0.796	1.3861
287.35 K, x2 = 0.799	1.3859
287.35 K, x2 = 0.803	1.3857
287.35 K, x2 = 0.809	1.3853
287.36 K, x2 = 0.737	1.3895
287.36 K, x2 = 0.798	1.386
287.37 K, x2 = 0.737	1.3895
287.37 K, x2 = 0.741	1.3893
287.37 K, x2 = 0.79	1.3865
287.37 K, x2 = 0.796	1.3861
